From the supplement of paper PMC10307832

Columns and labels:
Assay in all cases: relative viability (nuclei count vs DMSO), 5 days (fraction); higher = more cells survive
LOU-NH91 = tested on: LOU-NH91
Outline: (§1)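 Values are medians from duplicate plates. Each reflects relative viability, defined as the nuclei count of treated wells over that of vehicle wells. Lung cancer cell lines in 1536-well plates were pin-tool dosed one day after seeding with one drug alone or with a fixed anchor-drug dose plus five library-drug doses (not always all listed) in √10 steps, then fixed, stained and imaged at 4× after 5 days.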

NCI-H441 = tested on: NCI-H441
Outline: as §1

NCI-H3122 = tested on: NCI-H3122
Outline: as §1

NCI-H727 = tested on: NCI-H727
Outline: as §1

BEN = tested on: BEN
Outline: as §1

HCC-44 = tested on: HCC-44
Outline: as §1

NCI-H647 = tested on: NCI-H647
Outline: as §1

NCI-H2126 = tested on: NCI-H2126
Outline: as §1

NCI-H650 = tested on: NCI-H650
Outline: as §1

NCI-H838 = tested on: NCI-H838
Outline: as §1

Work on CC(=O)O[C@@]12CO[C@@H]1C[C@H](O)[C@@]1(C)C(=O)[C@H](O)C3=C(C)[C@@H](OC(=O)[C@H](O)[C@@H](NC(=O)OC(C)(C)C)c4ccccc4)C[C@@](O)([C@@H](OC(=O)c4ccccc4)[C@H]21)C3(C)C [Docetaxel] + CC(C)C[C@H](NC(=O)[C@H](Cc1ccccc1)NC(=O)c1cnccn1)B(O)O [Bortezomib] (partner 0.002 µM) yielded a relative viability (LOU-NH91; first compound 0.0002 µM) of 0.483, a relative viability (LOU-NH91; first compound 0.000632 µM) of 0.46 and a relative viability (LOU-NH91; first compound 0.002 µM) of 0.4. The relative viability (LOU-NH91; first compound 0.006325 µM) was 0.337, the relative viability (LOU-NH91; first compound 0.02 µM) was 0.345 and the relative viability (NCI-H441; first compound 0.0002 µM) was 0.449. The relative viability (NCI-H441; first compound 0.000632 µM) was 0.276, the relative viability (NCI-H441; first compound 0.002 µM) was 0.208 and the relative viability (NCI-H441; first compound 0.006325 µM) was 0.188. For the same compound, the relative viability (NCI-H441; first compound 0.02 µM) was 0.179, the relative viability (NCI-H3122; first compound 0.0002 µM) was 1.04 and the relative viability (NCI-H3122; first compound 0.000632 µM) was 0.907. The relative viability (NCI-H3122; first compound 0.002 µM) was 0.864, the relative viability (NCI-H3122; first compound 0.006325 µM) was 0.368 and the relative viability (NCI-H3122; first compound 0.02 µM) was 0.227. It also gave a relative viability (NCI-H727; first compound 0.0002 µM) of 0.795, a relative viability (NCI-H727; first compound 0.000632 µM) of 0.855 and a relative viability (NCI-H727; first compound 0.002 µM) of 0.474. For the same compound, the relative viability (NCI-H727; first compound 0.006325 µM) was 0.473, the relative viability (NCI-H727; first compound 0.02 µM) was 0.483 and the relative viability (BEN; first compound 0.0002 µM) was 0.612. The relative viability (BEN; first compound 0.000632 µM) was 0.644, the relative viability (BEN; first compound 0.002 µM) was 0.341 and the relative viability (BEN; first compound 0.006325 µM) was 0.263. It also gave a relative viability (BEN; first compound 0.02 µM) of 0.164, a relative viability (HCC-44; first compound 0.0002 µM) of 0.904 and a relative viability (HCC-44; first compound 0.000632 µM) of 0.905. The relative viability (HCC-44; first compound 0.002 µM) was 0.57, the relative viability (HCC-44; first compound 0.006325 µM) was 0.151 and the relative viability (HCC-44; first compound 0.02 µM) was 0.149. The relative viability (NCI-H647; first compound 0.0002 µM) was 0.762, the relative viability (NCI-H647; first compound 0.000632 µM) was 0.23 and the relative viability (NCI-H647; first compound 0.002 µM) was 0.113. The relative viability (NCI-H647; first compound 0.006325 µM) was 0.123, the relative viability (NCI-H647; first compound 0.02 µM) was 0.0811 and the relative viability (NCI-H2126; first compound 0.0002 µM) was 1.12. The relative viability (NCI-H2126; first compound 0.000632 µM) was 1.09, the relative viability (NCI-H2126; first compound 0.002 µM) was 1.04 and the relative viability (NCI-H2126; first compound 0.006325 µM) was 0.427. It also gave a relative viability (NCI-H2126; first compound 0.02 µM) of 0.288, a relative viability (NCI-H650; first compound 0.0002 µM) of 0.636 and a relative viability (NCI-H650; first compound 0.000632 µM) of 0.425. For the same compound, the relative viability (NCI-H650; first compound 0.002 µM) was 0.309, the relative viability (NCI-H650; first compound 0.006325 µM) was 0.233 and the relative viability (NCI-H650; first compound 0.02 µM) was 0.196. It also gave a relative viability (NCI-H838; first compound 0.0002 µM) of 0.795, a relative viability (NCI-H838; first compound 0.000632 µM) of 0.522 and a relative viability (NCI-H838; first compound 0.002 µM) of 0.247. The relative viability (NCI-H838; first compound 0.006325 µM) was 0.154 and the relative viability (NCI-H838; first compound 0.02 µM) was 0.0975.
